Assay results as given in paper PMC5962642, “Dynamic imaging of adaptive stress response pathway activation for prediction of drug induced liver injury” (Archives of Toxicology, 2018).

Experiments:
[1] = two classes made from the FDA DILI-concern labeling
[2] = C-max obtained from FDA or literature; ref per compound (FDA, Dailymed, Xu, O’Brien, Khetani, Regenthal, Gustafsson, Dawson, Ogutu, Patel, Schmidt, Ravic, Keisu, Hu, Wagner); cited from earlier work
[3] = ref Chen et al. [2016], cited from earlier work; for DILI con. (DILI-concern labeling): FDA DILI labeling; for Hepa. (hepatotoxicity class): FDA labeling in eight classes of hepatotoxicity
[4] = ref livertox.nih.gov database; cited from earlier work

Structure (SMILES) | Severity class [1] | Cmax [2] [µM] | DILI con. (DILI-concern labeling) [3] | Hepa. (hepatotoxicity class) [3] | Metab (metabolic potential) [4]
C[C@H]1O[C@H](O[C@H]2[C@H](O)[C@@H](O)[C@@H](O[C@H]3[C@H](O)[C@@H](O)C(O)O[C@@H]3CO)O[C@@H]2CO)[C@H](O)[C@@H](O)[C@@H]1N[C@H]1C=C(CO)[C@@H](O)[C@H](O)[C@H]1O (stereo partly shown) [Acarbose] | Sev. | 0.15 |  |  | 
Nc1ncnc2c1ncn2CCOCP(=O)(O)O [Adefovir] | Non-sev. | 0.085 | Less-DC | 2 | 
Oc1ncnc2[nH]ncc12 [Allopunnol] | Sev. | 13.8 | Most-DC | 8 | 
C[N+](C)(C)CC(=O)O [Betaine] | Non-sev. | 940 | No-DC | 1 | 
CC(O)(CS(=O)(=O)c1ccc(F)cc1)C(=O)Nc1ccc(C#N)c(C(F)(F)F)c1 (stereo not shown) [Bicalutamide] |  | 1.97 |  | 8 | YES
COc1ccccc1Oc1c(NS(=O)(=O)c2ccc(C(C)(C)C)cc2)nc(-c2ncccn2)nc1OCCO [Bosentan] |  |  | Most-DC | 7 | YES
CN1C(=O)CCS(=O)(=O)C1c1ccc(Cl)cc1 (stereo not shown) [Chlormezanone] | Sev. | 10.6 | Most-DC | 8 | 
CN/C(=N/CCSCc1nc[nH]c1C)NC#N [Cimetidine] |  | 11.9 | Less-DC | 2 | YES
CCOC(=O)C(C)(C)Oc1ccc(Cl)cc1 [Clofibrate] |  | 470 | Less-DC | 3 | YES
Br.COc1ccc2c(c1)[C@]13CCCC[C@@H]1[C@H](C2)N(C)CC3 [Dextromethorphan hbr] | Non-sev. | 0.022 | No-DC |  | 
CC[N+](C)(C)c1cccc(O)c1 [Edrophonium] | Non-sev. | 60.2 |  | 1 | 
CCOC(=O)[C@H](CCc1ccccc1)N[C@@H](C)C(=O)N1CCC[C@H]1C(=O)O [Enalapril] |  | 0.4 | Less-DC | 7 | YES
CCN(CC)C(=O)/C(C#N)=C/c1cc(O)c(O)c([N+](=O)[O-])c1 [Entacapone] | Non-sev. | 3.93 | Less-DC | 1 | YES
NC(N)=Nc1nc(CSCCC(N)=NS(N)(=O)=O)cs1 [Famotidine] |  | 0.308 | Less-DC | 3 | YES
CC(C(=O)O)c1cccc(Oc2ccccc2)c1 (stereo not shown) [Fenoprofen] |  | 58.2 | Most-DC | 8 | YES
CC(C(=O)O)c1ccc(-c2ccccc2)c(F)c1 (stereo not shown) [Flurbiprofen] |  | 57.3 | Amb.-DC | 3 | YES
COC1=CC(=O)C[C@@H](C)[C@]12Oc1c(Cl)c(OC)cc(OC)c1C2=O [Griseofulvin] |  | 4.54 |  |  | YES
O=C(CCCN1CCC(O)(c2ccc(Cl)cc2)CC1)c1ccc(F)cc1 [Haloperidol] |  | 0.005 |  | 5 | YES
CC(C)NNC(=O)c1ccncc1 [Iboniazid] | Sev. | 76.6 | Most-DC | 8 | YES
CN(C)CCCN1c2ccccc2CCc2ccccc21 [Imipramine] |  | 0.29 |  |  | YES
NC[C@H]1O[C@H](O[C@H]2[C@H](O)[C@@H](O[C@H]3O[C@H](CO)[C@@H](O)[C@H](N)[C@H]3O)[C@H](N)C[C@@H]2N)[C@H](O)[C@@H](O)[C@@H]1O [Kanamycin] | Non-sev. | 60.1 |  |  | 
CN(C)C(=N)N=C(N)N [Metformin] |  |  | Less-DC | 1 | YES
Cc1cccc(C)c1OCC(C)N (stereo not shown) [Mexiletine] |  | 3.83 |  | 3 | YES
CS(=O)(=O)Nc1ccc([N+](=O)[O-])cc1Oc1ccccc1 [Nimesulide] |  | 21.1 |  |  | YES

Structure (SMILES) | Severity class [1] | Cmax [2] [µM] | DILI con. (DILI-concern labeling) [3] | Hepa. (hepatotoxicity class) [3] | Metab (metabolic potential) [4]
CNC(=C[N+](=O)[O-])NCCSCc1csc(CN(C)C)n1 [Nizatidine] |  | 4 | Less-DC | 5 | YES
COc1ccc2[nH]c([S+]([O-])Cc3ncc(C)c(OC)c3C)nc2c1 (stereo not shown) [Omeprazole] |  | 4.7 | Less-DC | 4 | YES
Fc1ccc([C@@H]2CCNC[C@H]2COc2ccc3c(c2)OCO3)cc1 [Paroxetine] |  |  | Less-DC | 8 | YES
CCC1(c2ccccc2)C(=O)NC(=O)NC1=O [Phenobarbital] | Non-sev. | 146 |  | 3 | 
O=C1NC(=O)C(c2ccccc2)(c2ccccc2)N1 [Phenytoin] |  | 21.7 | Most-DC | 8 | YES
CCc1ccc(CCOc2ccc(CC3SC(=O)NC3=O)cc2)nc1 (stereo not shown) [Pioghtazone] | Non-sev. | 2.95 | Less-DC | 3 | 
COc1cc(NC(C)CCCN)c2ncccc2c1 (stereo not shown) [Primaquine] | Non-sev. |  | No-DC | 1 | 
CCC1(c2ccccc2)C(=O)NCNC1=O [Primidone] |  | 4.67 |  | 1 | YES
OC(CCN1CCCC1)(c1ccccc1)C1CCCCC1 (stereo not shown) [Procychdine] | Non-sev. |  |  |  | 
CC(C)NCC(O)COc1cccc2ccccc12 (stereo not shown) [Propranolol] |  |  |  |  | YES
CNC(=C[N+](=O)[O-])NCCSCc1ccc(CN(C)C)o1 [Ranitidine] |  | 1.79 | Less-DC | 5 | 
NC(=O)c1ncn([C@@H]2O[C@H](CO)[C@@H](O)[C@H]2O)n1 [Ribavirin] |  | 2.61 | Amb.-DC |  | YES
CO[C@H]1/C=C/O[C@@]2(C)Oc3c(C)c(O)c4c(O)c(c(/C=N/N5CCN(C)CC5)c(O)c4c3C2=O)NC(=O)/C(C)=C\C=C\[C@H](C)[C@H](O)[C@@H](C)[C@@H](O)[C@@H](C)[C@H](OC(C)=O)[C@@H]1C [Rifampicin] |  | 15 | Most-DC |  | YES
C[N+](C)(C)CCOC(=O)CCC(=O)OCC[N+](C)(C)C [Succinylcholine] | Non-sev. | 138 | No-DC | 1 | 
C=CC[C@@H]1/C=C(\C)C[C@H](C)C[C@H](OC)[C@H]2O[C@@](O)(C(=O)C(=O)N3CCCC[C@H]3C(=O)O[C@H](/C(C)=C/[C@@H]3CC[C@@H](O)[C@H](OC)C3)[C@H](C)[C@@H](O)CC1=O)[C@H](C)C[C@@H]2OC [Tacrolimus] |  |  | Less-DC | 5 | YES
CC/C(=C(\c1ccccc1)c1ccc(OCCN(C)C)cc1)c1ccccc1 [Tamoxifen] |  |  |  |  | YES
CN(C/C=C/C#CC(C)(C)C)Cc1cccc2ccccc12 [Terbinafine] |  | 4 | Most-DC | 8 | 
CSc1ccc2c(c1)N(CCC1CCCCN1C)c1ccccc1S2 (stereo not shown) [Thiondazine] | Non-sev. | 0.55 |  |  | YES
Cc1ccc(C(=O)c2cc(O)c(O)c([N+](=O)[O-])c2)cc1 [Tolcapone] | Sev. | 22 | Most-DC | 8 | YES
O=c1n(CCCN2CCN(c3cccc(Cl)c3)CC2)nc2ccccn12 [Trazodone] |  | 5.06 | Less-DC | 5 | YES
Cc1c(C)c2c(c(C)c1O)CCC(C)(COc1ccc(CC3SC(=O)NC3=O)cc1)O2 (stereo not shown) [Troghtazone] | Sev. |  | Most-DC | 8 | YES
COc1cc(C(=O)NS(=O)(=O)c2ccccc2C)ccc1Cc1cn(C)c2ccc(NC(=O)OC3CCCC3)cc12 [Zafirlukast] |  | 1.21 | Most-DC | 8 | YES
CN(C)C/C=C(/c1ccc(Br)cc1)c1cccnc1 [Zimehdine] | Sev. |  | Most-DC | 8 | 
